The test system of experiment [1] is NMDA-induced death. The experiment can be described thus: NMDA test (25 mg/kg i.v.), protection against NMDA-induced death. The note with it: Mus musculus; for ED50: 1 h, oral, one hour before NMDA 25 mg/kg i.v., dose protecting 50% of animals against NMDA-induced death; for responders at 5 mg/kg: 5 mg/kg oral, 1 hr before test, NMDA 25 mg/kg i.v., proportion of surviving animals, read-out: Protective action. Format: in vivo, male NMRI mice. Here is the method: The following method was used to determine the neuroprotective/anticonvulsive activity of the compounds according to the invention of the general formula I: […]
In order to evaluate the neuroprotective activity, NMDA was administered intravenously in an amount of 25 mg/kg/10 ml to male NMRI mice having a body weight of 20-25 g. As a result of this administration the animals suffered clonic and in some cases also tonic convulsions, leading to death. Prevention of death is used as a criterion of the effectiveness of the investigated compounds.
All experimental animals had free access to food and water before the experiments. The test and reference substances were administered orally as a suspension in 0.2% agar or water, by means of a pharyngeal probe, in some cases with the aid of solubilizers such as PEG-400. Control animals received the same volume of solvents, if necessary with the addition of solubilizers. One hour after administration of the substance NMDA was administered intravenously and the occurrence of convulsions was observed.
The results of the tests carried out (NMDA 25 mg i.v.) at doses of 5 mg of the compounds according to the invention per kg body weight compared to known NMDA antagonists are given in Table 1. The percentage proportion of the surviving animals is given as % effect.
Table 1 also gives as ED-50 values those doses of the substances according to the invention and other NMDA antagonists, which in the NMDA i.v. test (25 mg/kg) one hour after administration protected 50% of the animals against NMDA-induced death.
The ED-50 values were determined according to the method of Lichtfield and Wilcoxon, J. Pharmacol. exp. Therapeut. 96, 99 (1949), in each case using 4-5 groups of animals each containing 10 animals per dose stage.

Experiment [2] relates to NMDA-induced death. The description is as above. It is filed as in vivo, male NMRI mice. To be noted: Mus musculus, 1 hr before test, NMDA 25 mg/kg i.v., proportion of surviving animals, read-out: Protective action; for responders at 50 mg/kg: 50 mg/kg oral; for responders at 20 mg/kg: 20 mg/kg oral.

In the experiment with NMDA-induced death [1], `COc1ccc2c(c1)[C@]13CCCC[C@@H]1[C@H](C2)N(C)CC3` [Dextromethorphan, reference compound] gave a median effective dose (ED50) of 66.7 mg/kg. Besides, the responders at 50 mg/kg with NMDA-induced death [2] is 50%.

In the case of `COc1ccc2c(C)c(CCN3CCN(c4ccccc4OC)CC3)c(=O)oc2c1` [Example 1, 7-methoxy-3-{2-[4-(2-methoxyphenyl)-1-piperazinyl]ethyl}-4-methyl-2H-1-benzopyran-2-one], in the experiment on NMDA-induced death [1], the ED50 was determined as 0.8 mg/kg and the responders at 5 mg/kg stood at 87.5%.

Take `COc1cc2oc(=O)c(CCN3CCN(c4ccccc4OC)CC3)c(C)c2cc1O` [Example 2, 6-hydroxy-7-methoxy-3-{2-[4-(2-methoxyphenyl)-1-piperazinyl]ethyl}-4-methyl-2H-1-benzopyran-2-one]: in the experiment on NMDA-induced death [1], it took a dose of 0.2 mg/kg to reach the 50% effect level (ED50) and the responders at 5 mg/kg was found to be 100%.

With `COc1cc2oc(=O)c(CCN3CCN(c4ccccc4)CC3)c(C)c2cc1OC` [Example 3, 6,7-dimethoxy-4-methyl-3-[2-(4-phenyl-1-piperazinyl)ethyl]-2H-1-benzopyran-2-one], the responders at 5 mg/kg in the experiment with NMDA-induced death [1] is 50%.

Turning to `COc1cc2oc(=O)c(CCN3CCN(c4ccccc4OC)CC3)c(C)c2cc1OC` [Example 4, 6,7-dimethoxy-3-{2-[4-(2-methoxyphenyl)-1-piperazinyl)ethyl]-4-methyl-2H-1-benzopyran-2-one], in the experiment on NMDA-induced death [1], the 50% effect level (ED50) was put at a dose of 0.4 mg/kg and the responders at 5 mg/kg is 100%.

For `CCOc1cc2c(C)c(CCN3CCC(c4ccccc4)CC3)c(=O)oc2cc1OC` [Example 5, 6-ethoxy-7-methoxy-4-methyl-3-[2-(4-phenyl-1-piperidinyl)ethyl]-2H-1-benzopyran-2-one], in the experiment with NMDA-induced death [1], the 50% effect level (ED50) was put at a dose of 4.1 mg/kg and the responders at 5 mg/kg came out at 75%.

For the compound `CCOc1cc2c(C)c(CCN3CCN(c4ccccc4)CC3)c(=O)oc2cc1OC` [Example 6, 6-ethoxy-7-methoxy-4-methyl-3-[2-(4-phenyl-1-piperazinyl)ethyl]-2H-1-benzopyran-2-one], in the experiment with NMDA-induced death [1], the ED50 is 2 mg/kg and the responders at 5 mg/kg is 87.5%.

With `CCOc1cc2c(C)c(CCN3CCN(c4ccccc4OC)CC3)c(=O)oc2cc1OC` [Example 7, 6-ethoxy-7-methoxy-3-{2-[4-(2-methoxyphenyl)-1-piperazinyl]ethyl}-4-methyl-2H-1-benzopyran-2-one], in the experiment with NMDA-induced death [1], the 50% effect level (ED50) was put at a dose of 0.4 mg/kg and the responders at 5 mg/kg worked out at 100%.

Regarding `COc1cc2oc(=O)c(CCN3CCN(c4ccccc4OC)CC3)c(C)c2cc1OC(C)C` [Example 8, 7-methoxy-3-{2-[4-(2-methoxyphenyl)-1-piperazinyl]ethyl}-4-methyl-6-(1-methylethoxy)-2H-1-benzopyran-2-one], in the experiment on NMDA-induced death [1], the 50% effective dose (ED50) stood at 0.7 mg/kg and the responders at 5 mg/kg was determined as 100%.

Regarding `CCS(=O)(=O)Oc1cc2c(C)c(CCN3CCN(c4ccccc4OC)CC3)c(=O)oc2cc1OC` [Example 9, 6-(ethanesulphonyloxy)-7-methoxy-3-(2-[4-(2-methoxyphenyl)-1-piperazinyl]-ethyl)-4-methyl-2H-1-benzopyran-2-one], in the experiment with NMDA-induced death [1], the ED50 was 0.6 mg/kg and the responders at 5 mg/kg amounted to 100%.

Turning to `COc1ccccc1N1CCN(CCc2c(C)c3ccc(OC)c(OC)c3oc2=O)CC1` [Example 10, 7,8-dimethoxy-3-{2-[4-(2-methoxyphenyl)-1-piperazinyl]ethyl}-4-methyl-2H-1-benzopyran-2-one], in the experiment on NMDA-induced death [1], the 50% effect level (ED50) was put at a dose of 0.4 mg/kg and the responders at 5 mg/kg stood at 100%.

Take `CCOc1ccc2c(C)c(CCN3CCN(c4ccccc4OC)CC3)c(=O)oc2c1OCC` [Example 11, 7,8-diethoxy-3-{2-[4-(2-methoxyphenyl)-1-piperazinyl]ethyl}-4-methyl-2H-1-benzopyran-2-one]: the responders at 5 mg/kg in the experiment on NMDA-induced death [1] stood at 100%.

`COc1cc2oc(=O)c(CCN3CCC(c4ccccc4)CC3)c(C)c2c(OC)c1OC` [Example 12, 5,6,7-trimethoxy-4-methyl-3-[2-(4-phenyl-1-piperidinyl)ethyl]-2H-1-benzopyran-2-one]: in the experiment with NMDA-induced death [1], the 50% effect level (ED50) was put at a dose of 3.4 mg/kg and the responders at 5 mg/kg stood at 75%.

In the case of `COc1cc2oc(=O)c(CCN3CCN(c4ccccc4)CC3)c(C)c2c(OC)c1OC` [Example 13, 5,6,7-trimethoxy-4-methyl-3-[2-(4-phenyl-1-piperazinyl)ethyl]-2H-1-benzopyran-2-one], the responders at 5 mg/kg with NMDA-induced death [1] is 62.5%.

On to `COc1cc(OC)c2c(C)c(CCN3CCC(c4ccccc4)CC3)c(=O)oc2c1` [Example 14, 5,7-dimethoxy-4-methyl-3-[2-(4-phenyl-1-piperidinyl)ethyl]-2H-1-benzopyran-2-one], for which, in the experiment with NMDA-induced death [1], it took a dose of 2.2 mg/kg to reach the 50% effect level (ED50) and the responders at 5 mg/kg was determined as 87.5%.

With `COc1cc(OC)c2c(C)c(CCN3CCN(c4ccccc4)CC3)c(=O)oc2c1` [Example 15, 5,7-dimethoxy-4-methyl-3-[2-(4-phenyl-1-piperazinyl)ethyl]-2H-1-benzopyran-2-one], in the experiment with NMDA-induced death [1], it took a dose of 1 mg/kg to reach the 50% effect level (ED50) and the responders at 5 mg/kg is 87.5%.

On to `COc1ccccc1N1CCN(CCc2c(C)c3c(O)cc(O)cc3oc2=O)CC1` [Example 16, 5,7-dihydroxy-3-{2-[4-(2-methoxyphenyl)-1-piperazinyl]ethyl}-4-methyl-2H-1-benzopyran-2-one], for which, in the experiment with NMDA-induced death [1], the median effective dose (ED50) was determined as 0.2 mg/kg and the responders at 5 mg/kg came out at 100%.

On to `COc1cc(OC)c2c(C)c(CCN3CCN(c4ccccc4OC)CC3)c(=O)oc2c1` [Example 17, 5,7-dimethoxy-3-{2-[4-(2-methoxyphenyl)-1-piperazinyl]ethyl}-4-methyl-2H-1-benzopyran-2-one], for which, in the experiment with NMDA-induced death [1], the ED50 turned out to be 0.2 mg/kg and the responders at 5 mg/kg was 100%.

In the case of `CCOc1cc(OCC)c2c(C)c(CCN3CCN(c4ccccc4OC)CC3)c(=O)oc2c1` [Example 18, 5,7-diethoxy-3-{2-[4-(2-methoxyphenyl)-1-piperazinyl]ethyl}-4-methyl-2H-1-benzopyran-2-one], in the experiment with NMDA-induced death [1], the 50% effective dose (ED50) was 0.6 mg/kg and the responders at 5 mg/kg worked out at 100%.

As for `CCCOc1cc(OCCC)c2c(C)c(CCN3CCN(c4ccccc4OC)CC3)c(=O)oc2c1` [Example 19, 3-{2-[4-(2-methoxyphenyl)-1-piperazinyl]ethyl}-4-methyl-5,7-dipropoxy-2H-1-benzopyran-2-one], the responders at 5 mg/kg with NMDA-induced death [1] is 100%.

As for `CCOc1ccccc1N1CCN(CCc2c(C)c3c(OC)cc(OC)cc3oc2=O)CC1` [Example 20, 3-{2-[4-(2-ethoxyphenyl)-1-piperazinyl]ethyl}-5,7-dimethoxy-4-methyl-2H-1-benzopyran-2-one], the responders at 5 mg/kg in the experiment on NMDA-induced death [1] was 100%.

Consider `COc1cc(OC)c2c(C)c(CCN3CCN(c4ccccc4C)CC3)c(=O)oc2c1` [Example 21, 5,7-dimethoxy-4-methyl-3-{2-[4-(2-methylphenyl)-1-piperazinyl]ethyl}-2H-1-benzopyran-2-one], for which the responders at 5 mg/kg in the experiment on NMDA-induced death [1] is 87.5%.

In the case of `COc1cc(OC)c2c(C)c(CCN3CCN(c4ccccc4F)CC3)c(=O)oc2c1` [Example 22, 3-{2-[4-(2-fluorophenyl)-1-piperazinyl]ethyl}-5,7-dimethoxy-4-methyl-2H-1-benzopyran-2-one], in the experiment on NMDA-induced death [1], the responders at 5 mg/kg stood at 100%.

As to `COc1cc(OC)c2c(C)c(CCN3CCN(c4cccc(C(F)(F)F)c4)CC3)c(=O)oc2c1` [Example 23, 5,7-dimethoxy-4-methyl-3-{2-[4-(3-trifluoromethylphenyl)-1-piperazinyl]ethyl}-2H-1-benzopyran-2-one], in the experiment on NMDA-induced death [1], the responders at 5 mg/kg stood at 25%.

With `COc1cc(OC)c2c(C)c(CCN3CCC(O)(c4ccccc4)CC3)c(=O)oc2c1` [Example 24, 3-[2-(4-hydroxy-4-phenyl-1-piperidinyl)ethyl]-5,7-dimethoxy-4-methyl-2H-1-benzopyran-2-one], the responders at 5 mg/kg in the experiment with NMDA-induced death [1] turned out to be 25%.

As for `COc1cc(OC)c2c(C)c(CCN3CCN(c4ccccc4O)CC3)c(=O)oc2c1` [Example 25, 3-{2-[4-(2-hydroxyphenyl)-1-piperazinyl]-ethyl}-5,7-dimethoxy-4-methyl-2H-1-benzopyran-2-one], in the experiment with NMDA-induced death [1], the responders at 5 mg/kg was found to be 87.5%.

Regarding `Fc1ccc(C(c2ccc(F)cc2)N2CCN(C/C=C/c3ccccc3)CC2)cc1` [Flunarizin, reference compound], the 50% effective dose (ED50) with NMDA-induced death [1] was found to be 22.8 mg/kg. Moreover, in the experiment on NMDA-induced death [2], the responders at 50 mg/kg was determined as 100%.

As for `CNC1(c2ccccc2Cl)CCCCC1=O` (stereo not shown) [Ketamin], in the experiment on NMDA-induced death [2], the responders at 20 mg/kg worked out at 0%.

`COCCOC(=O)C1=C(C)NC(C)=C(C(=O)OC(C)C)C1c1cccc([N+](=O)[O-])c1` (stereo not shown) [Nimodipin, reference compound] gave an ED50 in the experiment on NMDA-induced death [1] of 18.5 mg/kg. The responders at 20 mg/kg in the experiment on NMDA-induced death [2] worked out at 87.5%.

For `COc1ccc(CCN(C)CCCC(C#N)(c2ccc(OC)c(OC)c2)C(C)C)cc1OC` (stereo not shown) [Verapamil, reference compound], in the experiment on NMDA-induced death [1], it took a dose of 17.3 mg/kg to reach the 50% effect level (ED50). Further, in the experiment with NMDA-induced death [2], the responders at 20 mg/kg stood at 87.5%.

The term ED50 denotes the dose that gives a 50% effect, or the effect in half of the subjects. A lower ED50 goes with greater potency.

Values taken from patent US5550129A, “Benzopyranones, processes for their preparation and their use” (Willmar Schwabe GmbH & Co., priority 1992, dated 1996).
